Source: patent US8399683B2 (TetraLogic Pharmaceuticals, priority 2008, dated 2013)

Experiments:
XIAP BIR-3 = target: T1, XIAP BIR-3 (Homo sapiens, UniProt P98170); test: Fluorescence polarization binding affinity to XIAP BIR-3 (competition with AbuRPF-K(5-Fam)-NH2); settings: 5 nM labeled peptide, 40 nM BIR3, 15 min at RT, pH 7.5; reported as ranges
T1 construct: 40 nM of the respective IAP BIR3
Procedure: (§1) The binding affinities of the compounds are reported as a KD value (μM). Briefly, various concentrations of test peptides were mixed with 5 nM of the fluorescently labeled peptide (i.e., a mutated N-terminal Smac peptide—AbuRPF-K(5-Fam)-NH2) and 40 nM of the respective IAP BIR3 for 15 min at RT in […] of 0.1M Potassium Phosphate buffer, pH 7.5 containing […] bovine g-globulin. Following incubation, the polarization values (mP) were measured on a Victor2V (available from PerkinElmer Life Sciences) using a 485 nm excitation filter and a 520 nm emission filter. The reported KD values are supplied as ranges (A=<0.1 μM, B=0.1 μM to 1 μM, C>1 μM to 10 μM, D=>10 μM).

SK-OV-3 cells = test: Growth inhibition of ovarian cancer cell line SK-OV-3 (MTT assay, cell survival); type: cell-based; settings: Homo sapiens, drug concentration that results in 50% cell survival, 72 hrs incubation, reported as ranges
Procedure: Compounds of the invention also were tested for their ability to inhibit the growth of an ovarian cancer cell line, SK-OV-3. A known assay previously used for measuring cell growth (as described in Hansen, M. B., Nielsen, S. E., and Berg, K. (1989) J. Immunol. Methods 119, 203-210 and incorporated herein by reference in its entirety) was used. Briefly, SK-OV-3 cells are seeded in 96-well plates in McCoy's medium containing 10% fetal bovine serum albumin (5,000 per well) and incubated overnight at 37° C. The next day, test compounds are added at various concentrations (0.003-10 μM) and the plates are incubated at 37° C. for an additional 72 hrs. This incubation time was considered to be optimal for measuring inhibitory effects of the different compounds tested. 50 microliters of 5 mg/mL MTT reagent is added to each well and the plates are incubated at 37° C. for another three (3) hours. At the end of the three (3) hour incubation period, 50 microliters of DMSO is added to each well to dissolve cells and the optical density (OD) of the wells is measured with a microplate reader (Victor^2 1420, Wallac, Finland) at 535 nm. Cell survival (CS) was calculated using the following equation: CS=(OD treated well/mean OD control wells)×100%.
The CC50 (reported in the following tables), is defined as the drug concentration that results in 50% cell survival (CS), and is derived by calculating the point where the dose-response curve crosses the 50% CS point using GraphPad Prism. The reported CC50 values are supplied as ranges (A=<0.1 μM, B=0.1 μM to 1 μM, C=>1 μM to 10 μM, D=>10 μM).

cIAP-1 BIR-3 = cIAP-1 BIR-3 (Homo sapiens, UniProt Q13490); test: Fluorescence polarization binding affinity to cIAP-1 BIR-3 (competition with AbuRPF-K(5-Fam)-NH2); settings: 5 nM labeled peptide, 40 nM BIR3, 15 min at RT, pH 7.5; reported as ranges; read-out: KD (c-IAP-1 BIR3)
Procedure: as §1

T1 sequence (P98170 241-356 limits assumed): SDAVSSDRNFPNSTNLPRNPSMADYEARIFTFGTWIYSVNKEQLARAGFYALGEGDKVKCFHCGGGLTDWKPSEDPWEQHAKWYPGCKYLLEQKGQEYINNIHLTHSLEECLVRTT
Chain of cIAP-1 BIR-3 (Q13490 266-352 limits assumed): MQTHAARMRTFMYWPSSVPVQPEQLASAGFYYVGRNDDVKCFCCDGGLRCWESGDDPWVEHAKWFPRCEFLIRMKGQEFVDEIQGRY

| SMILES | Kd (XIAP BIR-3) [nM] | CC50 (SK-OV-3 cells) [nM] | Kd (cIAP-1 BIR-3) [nM] |
| --- | --- | --- | --- |
| CN[C@@H](C)C(=O)N[C@H](C(=O)N1CC[C@@H]2[C@H]1[C@@H](c1c[nH]c3cc(F)ccc13)CN2C(=O)C1CC1)C1CCCCC1 [Example 40, N-{1-Cyclohexyl-2-[4-cyclopropanecarbonyl-6-(6-fluoro-1H-indol-3-yl)-hexahydro-pyrrolo[3,2-b]pyrrol-1-yl]-2-oxo-ethyl}-2-methylamino-propionamide] | < 100 | < 100 | < 100 |
| CCOC(=O)CN1C[C@H](c2c[nH]c3cc(F)ccc23)[C@@H]2[C@H]1CCN2C(=O)[C@@H](NC(=O)[C@H](C)NC)C1CCCCC1 [Example 41, [4-[2-Cyclohexyl-2-(2-methylamino-propionylamino)-acetyl]-3-(6-fluoro-1H-indol-3-yl)-hexahydro-pyrrolo[3,2-b]pyrrol-1-yl]-acetic acid ethyl ester] | < 100 | 100 to 1000 | < 100 |
| CN[C@@H](C)C(=O)N[C@H](C(=O)N1CC[C@@H]2[C@H]1[C@@H](c1c[nH]c3cc(F)ccc13)CN2CC(=O)O)C1CCCCC1 [Example 42, [4-[2-Cyclohexyl-2-(2-methylamino-propionylamino)-acetyl]-3-(6-fluoro-1H-indol-3-yl)-hexahydro-pyrrolo[3,2-b]pyrrol-1-yl]-acetic acid] | 100 to 1000 | 1000 to 10000 | < 100 |
| CN[C@@H](C)C(=O)N[C@H](C(=O)N1CC[C@@H]2[C@H]1[C@@H](c1c[nH]c3cc(F)ccc13)CN2S(C)(=O)=O)C1CCCCC1 [Example 43, N-{1-Cyclohexyl-2-[6-(6-fluoro-1H-indol-3-yl)-4-methanesulfonyl-hexahydro-pyrrolo[3,2-b]pyrrol-1-yl]-2-oxo-ethyl}-2-methylamino-propionamide] | < 100 | < 100 | < 100 |
| CN[C@@H](C)C(=O)N[C@H](C(=O)N1CC[C@@H]2[C@H]1[C@H](c1c[nH]c3cc(F)ccc13)CN2S(C)(=O)=O)C1CCCCC1 [Example 44] | 1000 to 10000 | 1000 to 10000 | 100 to 1000 |
| CC[C@H](NC(=O)[C@H](C)NC)C(=O)N1CC[C@@H]2[C@H]1[C@H](c1c[nH]c3cc(F)ccc13)CN2S(C)(=O)=O [Example 45, N-{1-[6-(6-Fluoro-1H-indol-3-yl)-4-methanesulfonyl-hexahydro-pyrrolo[3,2-b]pyrrole-1-carbonyl]-propyl}-2-methylamino-propionamide] | > 10000 | > 10000 | 1000 to 10000 |
| CC[C@H](NC(=O)[C@H](C)NC)C(=O)N1CC[C@@H]2[C@H]1[C@@H](c1c[nH]c3cc(F)ccc13)CN2S(C)(=O)=O [Example 46, N-{1-[6-(6-Fluoro-1H-indol-3-yl)-4-methanesulfonyl-hexahydro-pyrrolo[3,2-b]pyrrole-1-carbonyl]-propyl}-2-methylamino-propionamide] | < 100 | < 100 | < 100 |
| CN[C@@H](C)C(=O)N[C@H](C(=O)N1CC[C@@H]2[C@H]1[C@H](c1c[nH]c3cc(F)ccc13)CN2S(C)(=O)=O)C(C)C [Example 47, N-{1-[6-(6-Fluoro-1H-indol-3-yl)-4-methanesulfonyl-hexahydro-pyrrolo[3,2-b]pyrrole-1-carbonyl]-2-methyl-propyl}-2-methylamino-propionamide] | 100 to 1000 | > 10000 | 100 to 1000 |
| CN[C@@H](C)C(=O)N[C@H](C(=O)N1CC[C@@H]2[C@H]1[C@@H](c1c[nH]c3cc(F)ccc13)CN2S(C)(=O)=O)C(C)C [Example 48, N-{1-[6-(6-Fluoro-1H-indol-3-yl)-4-methanesulfonyl-hexahydro-pyrrolo[3,2-b]pyrrole-1-carbonyl]-2-methyl-propyl}-2-methylamino-propionamide] | < 100 | < 100 | < 100 |
| CN[C@@H](C)C(=O)N[C@H](C(=O)N1CC[C@@H]2[C@H]1[C@H](c1c[nH]c3cc(F)ccc13)CN2S(C)(=O)=O)C(C)(C)C [Example 49, N-{1-[6-(6-Fluoro-1H-indol-3-yl)-4-methanesulfonyl-hexahydro-pyrrolo[3,2-b]pyrrole-1-carbonyl]-2,2-dimethyl-propyl}-2-methylamino-propionamide] | 1000 to 10000 | > 10000 | 100 to 1000 |
| CN[C@@H](C)C(=O)N[C@H](C(=O)N1CC[C@@H]2[C@H]1[C@@H](c1c[nH]c3cc(F)ccc13)CN2S(C)(=O)=O)C(C)(C)C [Example 50, N-{1-[6-(6-Fluoro-1H-indol-3-yl)-4-methanesulfonyl-hexahydro-pyrrolo[3,2-b]pyrrole-1-carbonyl]-2,2-dimethyl-propyl}-2-methylamino-propionamide] | < 100 | < 100 | < 100 |
| CN[C@@H](C)C(=O)N[C@@H](CO)C(=O)N1CC[C@@H]2[C@H]1[C@H](c1c[nH]c3cc(F)ccc13)CN2S(C)(=O)=O [Example 51, N-{2-[6-(6-Fluoro-1H-indol-3-yl)-4-methanesulfonyl-hexahydro-pyrrolo[3,2-b]pyrrol-1-yl]-1-hydroxymethyl-2-oxo-ethyl}-2-methylamino-propionamide] | > 10000 | > 10000 | 1000 to 10000 |
| CN[C@@H](C)C(=O)N[C@@H](CO)C(=O)N1CC[C@@H]2[C@H]1[C@@H](c1c[nH]c3cc(F)ccc13)CN2S(C)(=O)=O [Example 52, N-{2-[6-(6-Fluoro-1H-indol-3-yl)-4-methanesulfonyl-hexahydro-pyrrolo[3,2-b]pyrrol-1-yl]-1-hydroxymethyl-2-oxo-ethyl}-2-methylamino-propionamide] | < 100 | 1000 to 10000 | < 100 |
| CN[C@@H](C)C(=O)N[C@@H](COC)C(=O)N1CC[C@@H]2[C@H]1[C@H](c1c[nH]c3cc(F)ccc13)CN2S(C)(=O)=O [Example 53, N-{2-[6-(6-Fluoro-1H-indol-3-yl)-4-methanesulfonyl-hexahydro-pyrrolo[3,2-b]pyrrol-1-yl]-1-methoxymethyl-2-oxo-ethyl}-2-methylamino-propionamide] | > 10000 | > 10000 | 1000 to 10000 |
| CN[C@@H](C)C(=O)N[C@@H](COC)C(=O)N1CC[C@@H]2[C@H]1[C@@H](c1c[nH]c3cc(F)ccc13)CN2S(C)(=O)=O [Example 54] | < 100 | 100 to 1000 | < 100 |
| CN[C@@H](C)C(=O)N[C@H](C(=O)N1CC[C@@H]2[C@H]1[C@H](c1c[nH]c3cc(F)ccc13)CN2S(C)(=O)=O)[C@@H](C)O [Example 55, N-{1-[6-(6-Fluoro-1H-indol-3-yl)-4-methanesulfonyl-hexahydro-pyrrolo[3,2-b]pyrrole-1-carbonyl]-2-hydroxy-propyl}-2-methylamino-propionamide] | > 10000 | > 10000 | 1000 to 10000 |
| CN[C@@H](C)C(=O)N[C@H](C(=O)N1CC[C@@H]2[C@H]1[C@@H](c1c[nH]c3cc(F)ccc13)CN2S(C)(=O)=O)C(C)O (stereo partly drawn) [Example 56] | < 100 | < 100 | < 100 |
| CN[C@@H](C)C(=O)N[C@H](C(=O)N1CC[C@@H]2[C@H]1[C@H](c1c[nH]c3cc(F)ccc13)CN2S(C)(=O)=O)[C@@H](C)OC [Example 57, N-{1-[6-(6-Fluoro-1H-indol-3-yl)-4-methanesulfonyl-hexahydro-pyrrolo[3,2-b]pyrrole-1-carbonyl]-2-methoxy-propyl}-2-methylamino-propionamide] | > 10000 | > 10000 | 100 to 1000 |
| CN[C@@H](C)C(=O)N[C@H](C(=O)N1CC[C@@H]2[C@H]1[C@@H](c1c[nH]c3cc(F)ccc13)CN2S(C)(=O)=O)[C@@H](C)OC [Example 58, N-{1-[6-(6-Fluoro-1H-indol-3-yl)-4-methanesulfonyl-hexahydro-pyrrolo[3,2-b]pyrrole-1-carbonyl]-2-methoxy-propyl}-2-methylamino-propionamide] | < 100 | < 100 | < 100 |
